Laboratory results as given in patent publication US20060069132A1, “Azolecarboxamide herbicides” (priority 2004, published 2006).

How the values were obtained:
wheat = assay: Test B postemergence herbicide test; type: in vivo, Triticum aestivum; parameters: key to Wheat plant response rating: 0 = no effect, 100 = complete control; conditions: postemergence
Outline: (§1)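 Formulated test chemicals went onto postemergence plants measuring 2 to 18 cm, at one to four leaves. For the paddy assay, species had reached two leaves. Scoring took place 13–15 days later by eye, relative to untreated plants, using 0 for no effect up to 100 for full control.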

barnyardgrass [1] = assay: Test A pre-/postemergence herbicide test; type: in vivo, Echinochloa crus-galli
Outline: (§2)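 Visual injury scores on a 0–100 scale (100 = complete control) taken about ten days post-treatment in greenhouse against untreated controls; dash means no result. Treatments: preemergence soil spray and postemergence spray to runoff on one- to two-leaf plants 2 to 10 cm tall, surfactant-containing formulation.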

morningglory [2] = assay: Test B pre-/postemergence herbicide test; type: in vivo, Ipomoea coccinea; conditions: for Morningglory plant response rating: postemergence
Outline: (§3)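 Response was scored visually 13 to 15 days after treatment against untreated greenhouse controls, 0 meaning no effect and 100 complete control. Formulations (solvent mixture plus surfactant) went onto soil after planting, onto foliage of 1- to 4-leaf plants, and onto 2-leaf plants in a flooded paddy set including rice and barnyardgrass.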

barnyardgrass [3] = assay: Test B pre-/postemergence herbicide test; type: in vivo, Echinochloa crus-galli; conditions: for Barnyardgrass plant response rating: postemergence
Outline: as §3

Surinam grass = assay: Test B pre-/postemergence herbicide test; type: in vivo, Urochloa decumbens; conditions: for Surinam Grass plant response rating: postemergence
Outline: (§4)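 Plants compared with untreated controls 13–15 days post-treatment and given a visual 0–100 injury score. Applications: preemergence to seeds; postemergence at 1- to 4-leaf (2–18 cm); paddy species flooded, 2-leaf stage. Vehicle non-phytotoxic, surfactant included.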

blackgrass = assay: Test B postemergence herbicide test; type: in vivo, Alopecurus myosuroides; conditions: postemergence
Outline: (§5)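 Visual control ratings, 0–100 versus untreated controls, taken after 13 to 15 days in the greenhouse. Blackgrass received a postemergence spray at the 1- to 4-leaf stage (2–18 cm); ducksalad, umbrella sedge and barnyardgrass were flooded-paddy treated at 2 leaves.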

barnyardgrass [4] = assay: Test B flooded paddy test; type: in vivo, Echinochloa crus-galli; conditions: 1000 g ai/ha, scale 0 to 100 (0 no effect, 100 complete control)
Outline: as §5

large crabgrass [5] = assay: Test B pre-/postemergence herbicide test; type: in vivo, Digitaria sanguinalis; conditions: for Crabgrass, Large plant response rating: postemergence
Outline: as §4

velvetleaf [6] = assay: Test A pre-/postemergence herbicide test; type: in vivo, Abutilon theophrasti
Outline: as §2

lambsquarters = assay: Test B pre-/postemergence herbicide test; type: in vivo, Chenopodium album; conditions: for Lambsquarters plant response rating: postemergence
Outline: as §4

giant foxtail [7] = assay: Test A pre-/postemergence herbicide test; type: in vivo, Setaria faberi
Outline: as §2

ducksalad = assay: Test B flooded paddy test; type: in vivo, Heteranthera limosa; conditions: 1000 g ai/ha, scale 0 to 100 (0 no effect, 100 complete control)
Outline: as §5

[8] = system: small flower umbrella sedge; assay: Test B flooded paddy test; type: in vivo, Cyperus difformis; conditions: 1000 g ai/ha, scale 0 to 100 (0 no effect, 100 complete control)
Outline: as §5

morningglory [9] = assay: Test A pre-/postemergence herbicide test; type: in vivo, Ipomoea spp.
Outline: as §2

redroot pigweed = assay: Test A pre-/postemergence herbicide test; type: in vivo, Amaranthus retroflexus
Outline: as §2

rice [10] = assay: Test B flooded paddy test; type: in vivo, Oryza sativa; conditions: 1000 g ai/ha, scale 0 to 100 (0 no effect, 100 complete control)
Outline: as §1

large crabgrass [11] = assay: Test A pre-/postemergence herbicide test; type: in vivo, Digitaria sanguinalis
Outline: as §2

rice [12] = assay: Test B pre-/postemergence herbicide test; type: in vivo, Oryza sativa; conditions: 0 = no effect, 100 = complete control, preemergence
Outline: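 Greenhouse pot assay with simultaneous preemergence (treated seed) and postemergence (2–18 cm seedlings) applications of surfactant-containing, non-phytotoxic solvent formulations. Response scored visually 13–15 days later on a 0–100 scale, 100 meaning complete control.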

cocklebur = assay: Test B pre-/postemergence herbicide test; type: in vivo, Xanthium strumarium; conditions: for Cocklebur plant response rating: postemergence
Outline: as §3

wild oat = assay: Test B postemergence herbicide test; type: in vivo, Avena fatua; conditions: postemergence
Outline: as §1

corn = assay: Test B pre-/postemergence herbicide test; type: in vivo, Zea mays; conditions: for Corn plant response rating: postemergence
Outline: as §4

velvetleaf [13] = assay: Test B pre-/postemergence herbicide test; type: in vivo, Abutilon theophrasti; conditions: for Velvetleaf plant response rating: postemergence
Outline: as §4

giant foxtail [14] = assay: Test B pre-/postemergence herbicide test; type: in vivo, Setaria faberi; conditions: for Foxtail, Giant plant response rating: postemergence
Outline: as §4

pigweed = assay: Test B pre-/postemergence herbicide test; type: in vivo, Amaranthus retroflexus; conditions: for Pigweed plant response rating: postemergence
Outline: as §4

[15] = 125 g ai/ha, visual rating, scale 0 (no effect) to 100 (complete control)
[16] = 500 g ai/ha, scale 0 to 100, 0 is no effect, 100 is complete control
[17] = Postemergence, 500 g ai/ha, 0 to 100 scale, 0 no effect, 100 complete control
[18] = Postemergence, 2000 g ai/ha, 0 to 100 scale, 0 no effect, 100 complete control
[19] = Preemergence, 2000 g ai/ha, visual rating, 0 to 100 scale (0 no effect, 100 complete control)
[20] = preemergence, 500 g ai/ha, visual injury, 0 to 100 scale (0 no effect, 100 complete control)
[21] = 125 g ai/ha, 0 = no effect, 100 = complete control, preemergence
[22] = 500 g ai/ha, visual rating, 0 = no effect, 100 = complete control, preemergence

CCn1nc(C(C)(C)C)cc1C(=O)Nc1cc(C(N)=O)ccc1F [Compound 271]
Wheat plant response rating (wheat; [15]): 30
Wheat plant response rating (wheat; [16]): 30
Barnyardgrass plant response rating (barnyardgrass [1]; [17]): 10
Plant response rating, Barnyardgrass (barnyardgrass [1]; [18]): 30
Barnyardgrass plant response rating (barnyardgrass [1]; [19]): 75
Barnyardgrass plant response rating (barnyardgrass [1]; [20]): 5
Morningglory plant response rating (0 to 100 scale) (morningglory [2]; [21]): 0
Plant response rating, Morningglory (morningglory [2]; [22]): 0
Morningglory plant response rating (morningglory [2]; [15]): 0
Morningglory plant response rating (morningglory [2]; [16]): 0
Barnyardgrass plant response rating (0 to 100 scale) (barnyardgrass [3]; [21]): 0
Plant response rating, Barnyardgrass (barnyardgrass [3]; [22]): 0
Barnyardgrass plant response rating (barnyardgrass [3]; [15]): 0
Barnyardgrass plant response rating (barnyardgrass [3]; [16]): 0
Surinam Grass plant response rating (0 to 100 scale) (Surinam grass; [21]): 0
Plant response rating, Surinam Grass (Surinam grass; [22]): 0
Surinam Grass plant response rating (Surinam grass; [15]): 0
Surinam Grass plant response rating (Surinam grass; [16]): 0
Blackgrass plant response rating (blackgrass; [15]): 10
Blackgrass plant response rating (blackgrass; [16]): 20
Barnyardgrass plant response rating (barnyardgrass [4]): 0
Crabgrass, Large plant response rating (0 to 100 scale) (large crabgrass [5]; [21]): 0
Plant response rating, Crabgrass, Large (large crabgrass [5]; [22]): 0
Crabgrass, Large plant response rating (large crabgrass [5]; [15]): 0
Crabgrass, Large plant response rating (large crabgrass [5]; [16]): 0
Velvetleaf plant response rating (velvetleaf [6]; [17]): 10
Plant response rating, Velvetleaf (velvetleaf [6]; [18]): 40
Velvetleaf plant response rating (velvetleaf [6]; [19]): 5
Velvetleaf plant response rating (velvetleaf [6]; [20]): 0
Lambsquarters plant response rating (0 to 100 scale) (lambsquarters; [21]): 0
Plant response rating, Lambsquarters (lambsquarters; [22]): 60
Lambsquarters plant response rating (lambsquarters; [15]): 10
Lambsquarters plant response rating (lambsquarters; [16]): 60
Foxtail, Giant plant response rating (giant foxtail [7]; [17]): 10
Plant response rating, Foxtail, Giant (giant foxtail [7]; [18]): 20
Foxtail, Giant plant response rating (giant foxtail [7]; [19]): 70
Foxtail, Giant plant response rating (giant foxtail [7]; [20]): 0
Ducksalad plant response rating (ducksalad): 40
Sedge, Umbrella plant response rating [8]: 40
Morningglory plant response rating (morningglory [9]; [17]): 10
Plant response rating, Morningglory (morningglory [9]; [18]): 30
Morningglory plant response rating (morningglory [9]; [19]): 0
Morningglory plant response rating (morningglory [9]; [20]): 0
Pigweed plant response rating (redroot pigweed; [17]): 45
Plant response rating, Pigweed (redroot pigweed; [18]): 90
Pigweed plant response rating (redroot pigweed; [19]): 60
Pigweed plant response rating (redroot pigweed; [20]): 60
Rice plant response rating (rice [10]): 20
Crabgrass, Large plant response rating (large crabgrass [11]; [17]): 10
Plant response rating, Crabgrass, Large (large crabgrass [11]; [18]): 10
Crabgrass, Large plant response rating (large crabgrass [11]; [19]): 15
Crabgrass, Large plant response rating (large crabgrass [11]; [20]): 0
Rice plant response rating (0 to 100 scale) (rice [12]; 125 g ai/ha): 0
Plant response rating, Rice (rice [12]; 500 g ai/ha, visual rating): 0
Cocklebur plant response rating (0 to 100 scale) (cocklebur; [21]): 0
Plant response rating, Cocklebur (cocklebur; [22]): 0
Cocklebur plant response rating (cocklebur; [15]): 0
Cocklebur plant response rating (cocklebur; [16]): 0
Oat, Wild plant response rating (wild oat; [15]): 20
Oat, Wild plant response rating (wild oat; [16]): 30
Corn plant response rating (0 to 100 scale) (corn; [21]): 0
Plant response rating, Corn (corn; [22]): 10
Corn plant response rating (corn; [15]): 0
Corn plant response rating (corn; [16]): 20
Velvetleaf plant response rating (0 to 100 scale) (velvetleaf [13]; [21]): 0
Plant response rating, Velvetleaf (velvetleaf [13]; [22]): 0
Velvetleaf plant response rating (velvetleaf [13]; [15]): 0
Velvetleaf plant response rating (velvetleaf [13]; [16]): 0
Foxtail, Giant plant response rating (0 to 100 scale) (giant foxtail [14]; [21]): 0
Plant response rating, Foxtail, Giant (giant foxtail [14]; [22]): 0
Foxtail, Giant plant response rating (giant foxtail [14]; [15]): 0
Foxtail, Giant plant response rating (giant foxtail [14]; [16]): 0
Pigweed plant response rating (0 to 100 scale) (pigweed; [21]): 0
Plant response rating, Pigweed (pigweed; [22]): 20
Pigweed plant response rating (pigweed; [15]): 50
Pigweed plant response rating (pigweed; [16]): 80
